According to patent US20230015691A1, “PROPHYLACTIC OR THERAPEUTIC AGENT FOR NON-ALCOHOLIC STEATOHEPATITIS IN HUMANS” (MITSUBISHI TANABE PHARMA CORPORATION, priority 2019, published 2023):

Columns and labels:
Format in all cases: in vivo, human
[1] = Body weight change in NASH patients (clinical trial, 72 weeks); settings: 10 mg once daily; for Change from baseline/Weight, Mean (SD): NASH patients
Experimental: (§1) [Test Protocol] • Number of cases to be analyzed: 47 cases (placebo administration group: 23 cases; MT-3995 administration group: 24 cases) • The subjects were selected according to the following criteria.
Kleiner fibrosis classification: Stage 2 or Stage 3
(§2) • Pre-observation period (number of weeks): 10 weeks • Administration period (number of weeks): 72 weeks • Post-observation period (number of weeks): 8 weeks • Dosage and administration: MT-3995 administration group=once daily, 10 mg; placebo group=once-daily administration
Table 2 and FIG. 1 show the average amount of change in the body weight after the assignment, in the placebo group and the MT-3995 group. The body weight was measured at the time of the visit.

[2] = test system: serum procollagen III N-Terminal Propeptide (PIIINP); experiment: Change in serum PIIINP level (Chemilumi PIIIP); settings: for Change from baseline/PIIINP, Mean / Change from baseline/PIIINP, LS Mean (95% CI): serum; for Change from baseline/PIIINP, LS Mean (95% CI): all NASH patients
Experimental: as §1, §2
Table 4-1 and FIG. 3-1 show the average amount of change in the serum procollagen III N-Terminal Propeptide (PIIINP) level after the assignment. For measurement of the serum PIIINP level, serum was prepared from blood collected from each patient, according to a conventional method. The prepared serum was subjected to a test. For the measurement, Chemilumi PIIIP (Siemens Healthcare Diagnostics K. K.) was used.
A stratified analysis was carried out for the subjects based on the presence or absence of complication with diabetes. DM represents the “group of patients complicated with diabetes”. A higher effect was found in the group of patients complicated with diabetes.
Further, a stratified analysis was carried out for the subjects based on the presence or absence of complication with hypertension. HP represents the “group of patients complicated with hypertension”. A higher effect was found in the group of patients complicated with hypertension.
Further, an analysis was carried out after dividing the subjects into patients with a BMI of not less than 30 and patients with a BMI of less than 30. In the figure, “<30” represents the group of patients with a BMI of less than 30, and “≥30” represents the group of patients with a BMI of not less than 30. A higher effect was found in the group of patients with a BMI of not less than 30.

[3] = test system: liver stiffness; experiment: Change in liver stiffness (Shear Wave Elastography); settings: for Change from baseline/Liver stiffness (Shear Wave Elastography), Mean (SD): NASH patients, 10 mg once daily
Experimental: as §1, §2
The liver stiffness after the assignment was measured using Shear Wave Elastography or Fibro scan. Table 7 and FIG. 6 show the average amount of change in the liver stiffness according to Shear Wave Elastography. Table 8 and FIG. 7 show the average amount of change in the liver stiffness according to Fibro scan.

Question: Which “Rate of body weight reduction versus placebo group” value ([1]; 72 weeks) does the source give for CC1(C)Oc2cc(NS(C)(=O)=O)ccc2N(c2ccc(F)cc2)C1=O [MT-3995] here?
Answer: higher in the MT-3995 administration group than in the placebo group

Question: And the “Change from baseline/Weight, Mean (SD)” value ([1]; Week 12)?
Answer: −1.39 (1.55) kg

Question: And the “Change from baseline/Weight, Mean (SD)” value ([1]; Week 24)?
Answer: −1.73 (2.09) kg

Question: And the “Change from baseline/Weight, Mean (SD)” value ([1]; Week 36)?
Answer: −1.88 (2.99) kg

Question: And the “Change from baseline/Weight, Mean (SD)” value ([1]; Week 48)?
Answer: −2.15 (3.23) kg

Question: What about the “Change from baseline/Weight, Mean (SD)” value ([1]; Week 60) of the same compound?
Answer: −2.23 (3.25) kg

Question: What about the “Change from baseline/Weight, Mean (SD)” value ([1]; Week 72) of the same compound?
Answer: −2.21 (3.10) kg

Question: And the Body weight change ([1]; from the beginning of the administration)?
Answer: A decrease in the body weight was found

Question: What about the “Serum PIIINP level versus placebo group” value ([2]; Weeks 12, 24, and 48 after the beginning of the administration) of the same compound?
Answer: significantly lower than the level in the placebo group

Question: What about the “Change from baseline/PIIINP, Mean” value ([2]; DM (patients complicated with diabetes), 10 mg once daily, Week 12) of the same compound?
Answer: -2.45 ng/mL

Question: What about the “Change from baseline/PIIINP, Mean” value ([2]; DM (patients complicated with diabetes), 10 mg once daily, Week 24) of the same compound?
Answer: -2.47 ng/mL

Question: And the “Change from baseline/PIIINP, Mean” value ([2]; DM (patients complicated with diabetes), 10 mg once daily, Week 48)?
Answer: -4.92 ng/mL

Question: And the “Change from baseline/PIIINP, Mean” value ([2]; DM (patients complicated with diabetes), 10 mg once daily, Week 72)?
Answer: -5.00 ng/mL

Question: And the “Change from baseline/PIIINP, Mean” value ([2]; HP (patients complicated with hypertension), 10 mg once daily, Week 12)?
Answer: -2.75 ng/mL

Question: And the “Change from baseline/PIIINP, Mean” value ([2]; HP (patients complicated with hypertension), 10 mg once daily, Week 24)?
Answer: -3.64 ng/mL

Question: What about the “Change from baseline/PIIINP, Mean” value ([2]; HP (patients complicated with hypertension), 10 mg once daily, Week 48) of the same compound?
Answer: -5.26 ng/mL

Question: What about the “Change from baseline/PIIINP, Mean” value ([2]; HP (patients complicated with hypertension), 10 mg once daily, Week 72) of the same compound?
Answer: -4.98 ng/mL

Question: What about the “Change from baseline/PIIINP, LS Mean (95% CI)” value ([2]; 10 mg once daily, Week 12) of the same compound?
Answer: −2.192 (−3.874, −0.510) ng/mL

Question: What about the “Change from baseline/PIIINP, LS Mean (95% CI)” value ([2]; 10 mg once daily, Week 24) of the same compound?
Answer: −3.124 (−5.605, −0.643) ng/mL

Question: And the “Change from baseline/PIIINP, LS Mean (95% CI)” value ([2]; 10 mg once daily, Week 48)?
Answer: −3.987 (−5.756, −2.218) ng/mL

Question: What about the “Change from baseline/PIIINP, LS Mean (95% CI)” value ([2]; 10 mg once daily, Week 72) of the same compound?
Answer: −3.930 (−5.714, −2.146) ng/mL

Question: What about the “Change from baseline/PIIINP, Mean” value ([2]; non-DM patients, 10 mg once daily, Week 12) of the same compound?
Answer: -2.34 ng/mL

Question: What about the “Change from baseline/PIIINP, Mean” value ([2]; non-DM patients, 10 mg once daily, Week 24) of the same compound?
Answer: -4.19 ng/mL

Question: What about the “Change from baseline/PIIINP, Mean” value ([2]; non-DM patients, 10 mg once daily, Week 48) of the same compound?
Answer: -3.14 ng/mL

Question: And the “Change from baseline/PIIINP, Mean” value ([2]; non-DM patients, 10 mg once daily, Week 72)?
Answer: -2.89 ng/mL

Question: And the “Change from baseline/PIIINP, Mean” value ([2]; non-HP patients, 10 mg once daily, Week 12)?
Answer: -1.69 ng/mL

Question: And the “Change from baseline/PIIINP, Mean” value ([2]; non-HP patients, 10 mg once daily, Week 24)?
Answer: -2.71 ng/mL

Question: What about the “Change from baseline/PIIINP, Mean” value ([2]; non-HP patients, 10 mg once daily, Week 48) of the same compound?
Answer: -1.89 ng/mL

Question: What about the “Change from baseline/PIIINP, Mean” value ([2]; non-HP patients, 10 mg once daily, Week 72) of the same compound?
Answer: -2.13 ng/mL

Question: And the “Change from baseline/PIIINP, Mean” value ([2]; patients with BMI < 30, 10 mg once daily, Week 12)?
Answer: -2.33 ng/mL

Question: And the “Change from baseline/PIIINP, Mean” value ([2]; patients with BMI < 30, 10 mg once daily, Week 24)?
Answer: -3.86 ng/mL

Question: What about the “Change from baseline/PIIINP, Mean” value ([2]; patients with BMI < 30, 10 mg once daily, Week 48) of the same compound?
Answer: -2.58 ng/mL

Question: And the “Change from baseline/PIIINP, Mean” value ([2]; patients with BMI < 30, 10 mg once daily, Week 72)?
Answer: -2.40 ng/mL

Question: What about the “Change from baseline/PIIINP, Mean” value ([2]; patients with BMI ≥ 30, 10 mg once daily, Week 12) of the same compound?
Answer: -2.46 ng/mL

Question: What about the “Change from baseline/PIIINP, Mean” value ([2]; patients with BMI ≥ 30, 10 mg once daily, Week 24) of the same compound?
Answer: -2.79 ng/mL

Question: And the “Change from baseline/PIIINP, Mean” value ([2]; patients with BMI ≥ 30, 10 mg once daily, Week 48)?
Answer: -5.24 ng/mL

Question: And the “Change from baseline/PIIINP, Mean” value ([2]; patients with BMI ≥ 30, 10 mg once daily, Week 72)?
Answer: -5.24 ng/mL

Question: And the “Serum PIIINP value versus beginning of the administration” value ([2]; throughout the treatment period)?
Answer: lower than the value observed at the beginning of the administration

Question: And the “Change from baseline/Liver stiffness (Shear Wave Elastography), Mean (SD)” value (“Change from baseline/Liver stiffness … (SD)” below) ([3]; Week 12)?
Answer: −4.57 (2.48) kPa

Question: And the “Change from baseline/Liver stiffness … (SD)” value ([3]; Week 24)?
Answer: −5.63 (3.23) kPa

Question: What about the “Change from baseline/Liver stiffness … (SD)” value ([3]; Week 48) of the same compound?
Answer: −4.90 (4.38) kPa

Question: And the “Change from baseline/Liver stiffness … (SD)” value ([3]; Week 72)?
Answer: −6.00 (5.23) kPa

Question: What about the “Liver stiffness versus beginning of the administration” value ([3]; Shear Wave Elastography, throughout the treatment period) of the same compound?
Answer: lower than the value observed at the beginning of the administration
